Reference: US6525188B2, “Nuclear retinoic acid co-receptor” (Karo Bio Ab, priority 1994, dated 2003)

Test system: RXR / OR-1 on a DR4-containing promoter
Assay: PAP reporter gene under DR4-containing promoter, transfected embryonal carcinoma P19 EC cells
Details: 100 nM 9-cis retinoic acid, 36 h, PAP activity
Experimental: Embryonal carcinoma P19 EC cells were cultured in Dulbecco's modified Eagle's medium supplemented with 10% foetal calf serum, nonessential amino acids, penicillin (100 units/ml) and streptomycin (100 mg/ml). […] Cells were plated in duplicate in 35 mm Petri dishes and transfected at 30% confluency, using lipofectin reagent (Bethesada Research Laboratories, USA) according to the recommendations of the supplier.
Transfections were repeated 6 times with different plasmid preparations and data from a representative experiment is presented here.
Since OR-1 and RXR formed a specific complex on the DR4 sequence in vitro, coexpression of OR-1 in embryonal carcinoma (EC) cells that express endogenous RXR was tested to determine whether it could affect the activity of a reporter gene under the control of a DR4-containing promoter.

CC1=C(/C=C/C(C)=C\C=C\C(C)=C\C(=O)O)C(C)(C)CCC1 [9-cis retinoic acid]
activation of RXR on a DR4-containing promoter (EC cells with endogenous RXR, OR-1 expressed): activation | induction of RXR on a reporter containing DR4 (embryonal carcinoma (EC) cells with endogenous RXR, without OR-1 expression): no induction
